# Earlier results as cited in paper PMC8095338 (Neuro-oncology Advances, 2021).
# Where two headings read alike, the source gives them in different places.
# Details: cited from earlier work
# [1] = pediatric patients, 25 mg/m^2, plasma, median (range), ref 6
# [2] = pediatric patients, 25 mg/m^2, plasma, median (range), ref 7
smiles,measurement,setting,value
Cn1cnc2c(F)c(Nc3ccc(Br)cc3Cl)c(C(=O)NOCCO)cc21 [selumetinib],AUC0→∞,"human, in vivo, 75 mg",4510 (19.2) hour × ng/mL
same,AUC0-∞ (systemic exposure),"human, in vivo",4510 to 6335 ng·h/mL
same,AUC0-∞ (systemic exposure),pediatric NF1 patients,2520 to 3855 ng·h/mL
same,median maximum concentration (Cmax) in plasma,pediatric dose 25 mg/m^2,886 ng/mL
same,AUC0→∞,[1],2520 (2341–3280) hour × ng/mL
same,Cmax,[1],886 (790–1200) ng/mL
same,T1/2,[1],6.5 (4.7–15.8) hours
same,AUC0→∞,[2],3855 (1780–7250) hour × ng/mL
same,Cmax,[2],1400 (306–3570) ng/mL
same,Tmax,[2],1.4 (1.0–4.0) hours
